# How the values were obtained:
# OPM-2 = assay: Cytotoxicity against human OPM-2 cells assessed as cell viability; type: functional, cell-based
# BCL2A1/BID [1] = molecular target: T1, BCL2A1/BID (Homo sapiens, UniProt Q16548); assay: Binding affinity to Bfl-1/Bid (unknown origin) incubated for 3 hrs by fluorescence polarization-based binding assay; type: protein assay
# T1 sequence (Q16548 whole entry): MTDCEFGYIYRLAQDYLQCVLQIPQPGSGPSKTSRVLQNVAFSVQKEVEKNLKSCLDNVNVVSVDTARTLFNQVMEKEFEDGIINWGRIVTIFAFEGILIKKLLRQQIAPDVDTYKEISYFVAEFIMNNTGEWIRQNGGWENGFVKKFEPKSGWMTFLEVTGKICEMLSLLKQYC
# T1 sequence (P55957 whole entry): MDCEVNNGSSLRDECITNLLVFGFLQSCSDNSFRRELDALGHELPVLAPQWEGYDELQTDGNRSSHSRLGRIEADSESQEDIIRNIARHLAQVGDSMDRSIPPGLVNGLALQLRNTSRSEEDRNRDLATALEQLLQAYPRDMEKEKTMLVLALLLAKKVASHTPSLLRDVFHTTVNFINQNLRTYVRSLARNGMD
# [2] = molecular target: T2, Induced myeloid leukemia cell differentiation protein Mcl-1/BH3-interacting domain death agonist (Homo sapiens, UniProt Q07820); assay: Binding affinity to Mcl-1/Bid (unknown origin) incubated for 3 hrs by fluorescence polarization-based binding assay; type: protein assay
# [3] = molecular target: Apoptosis regulator Bcl-2 (Homo sapiens, UniProt P10415); assay: Binding affinity to Bcl-2 (unknown origin) assessed as inhibition constant
# [4] = molecular target: T3, Induced myeloid leukemia cell differentiation protein Mcl-1 (Homo sapiens, UniProt Q07820); assay: Binding affinity to Mcl-1 (unknown origin) assessed as inhibition constant
# Bcl-2-like protein 1 = Bcl-2-like protein 1 (Homo sapiens, UniProt Q07817); assay: Binding affinity to Bcl-xL (unknown origin) assessed as inhibition constant
# [5] = molecular target: Induced myeloid leukemia cell differentiation protein Mcl-1/Bcl-2-like protein 11 (Homo sapiens, UniProt Q07820); assay: Inhibition of Mcl-1/Bim (unknown origin) by fluorescence polarisation assay; type: protein assay
# Bcl-xL/BAK [6] = molecular target: T4, Bcl-xL/BAK (Homo sapiens, UniProt Q07817); assay: Inhibition of Bcl-xL/Bak (unknown origin) by fluorescence polarization assay; type: protein assay
# [7] = molecular target: T2, Induced myeloid leukemia cell differentiation protein Mcl-1/BH3-interacting domain death agonist; assay: Inhibition of Mcl-1/Bid (unknown origin) by fluorescence polarization assay; type: protein assay
# [8] = molecular target: T5, Bcl-xL/BH3-interacting domain death agonist (Homo sapiens, UniProt Q07817); assay: Inhibition of Bcl-xL/Bid (unknown origin) by fluorescence polarization assay; type: protein assay
# [9] = molecular target: T3, Induced myeloid leukemia cell differentiation protein Mcl-1; assay: Binding affinity to Mcl-1 (unknown origin)
# BCL2/BAD = BCL2/BAD (Homo sapiens, UniProt P10415); assay: Binding affinity to Bcl-2/Bad (unknown origin) assessed as inhibition constant by fluorescence polarisation assay; type: protein assay
# [10] = Binding affinity to Bcl-xL/Bad (unknown origin) assessed as inhibition constant by fluorescence polarisation assay; design: species or system Homo sapiens
# BCL2L2/BID [11] = molecular target: T6, BCL2L2/BID (Homo sapiens, UniProt P55957+Q92843); assay: Inhibition of Bcl-W/Bid (unknown origin); type: protein assay
# T6 sequence (Q92843 whole entry): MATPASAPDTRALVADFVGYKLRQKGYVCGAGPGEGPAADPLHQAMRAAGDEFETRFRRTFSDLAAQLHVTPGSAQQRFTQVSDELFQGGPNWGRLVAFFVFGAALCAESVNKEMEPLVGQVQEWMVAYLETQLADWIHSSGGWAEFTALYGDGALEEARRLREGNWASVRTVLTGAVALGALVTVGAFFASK
# T6 sequence (P55957 whole entry): T1 sequence (P55957 whole entry)
# BCL2L10/BID = BCL2L10/BID (Homo sapiens, UniProt P55957+Q9HD36); assay: Inhibition of Bcl-B/Bid (unknown origin); type: protein assay
# [12] = molecular target: T2, Induced myeloid leukemia cell differentiation protein Mcl-1/BH3-interacting domain death agonist; assay: Inhibition of Mcl-1/Bid (unknown origin); type: protein assay
# [13] = molecular target: T5, Bcl-xL/BH3-interacting domain death agonist; assay: Inhibition of Bcl-xL/Bid complex (unknown origin); type: protein assay
# BCL2/BID [14] = molecular target: T7, BCL2/BID (Homo sapiens, UniProt P10415); assay: Inhibition of Bcl-2/Bid (unknown origin); type: protein assay
# BCL2A1/BID [15] = molecular target: T1, BCL2A1/BID; assay: Inhibition of Bfl-1/Bid (unknown origin); type: protein assay
# [16] = molecular target: T5, Bcl-xL/BH3-interacting domain death agonist; assay: Binding affinity to Bcl-xL/Bid (unknown origin) by fluorescence polarization assay; type: protein assay
# BCL2L2/BID [17] = molecular target: T6, BCL2L2/BID; assay: Binding affinity to Bcl-W/Bid (unknown origin) by fluorescence polarization assay; type: protein assay
# BCL2A1/BID [18] = molecular target: T1, BCL2A1/BID; assay: Binding affinity to Bfl-1/Bid (unknown origin) by fluorescence polarization assay; type: protein assay
# BCL2/BID [19] = molecular target: T7, BCL2/BID; assay: Binding affinity to Bcl-2/Bid (unknown origin) by fluorescence polarization assay; type: protein assay
# [20] = molecular target: T2, Induced myeloid leukemia cell differentiation protein Mcl-1/BH3-interacting domain death agonist; assay: Binding affinity to Mcl-1/Bid (unknown origin) assessed as inhibition constant by fluorescence polarization assay; type: protein assay
# [21] = molecular target: T3, Induced myeloid leukemia cell differentiation protein Mcl-1; assay: Binding affinity to Mcl-1 (unknown origin) assessed as inhibition constant by fluorescence polarization assay
# [22] = Induction of apoptosis in Mcl-1 dependent […] cells treated for 48 hrs by Annexin V-FITC staining based flow cytometric analysis; type: functional, cell-based; settings: Mus musculus, H22, 48 h
# MCF7 = assay: Induction of apoptosis in Bcl-2 dependent human MCF7 cells treated for 48 hrs by Annexin V-FITC staining based flow cytometric analysis; type: functional, cell-based; settings: MCF7, 48 h
# [23] = Inhibition of Bak/Bcl-xL (unknown origin) protein protein interaction by fluorescence polarization assay; design: species or system Homo sapiens
# [24] = Binding affinity to Bak/Bcl-xL (unknown origin) protein protein interaction by fluorescence polarization assay; design: species or system Homo sapiens
# MCL1-BAK1 complex [25] = molecular target: T8, MCL1-BAK1 complex (Homo sapiens, UniProt Q07820); assay: Inhibition of Bak/Mcl-1 (unknown origin) protein protein interaction by fluorescence polarization assay; type: protein-complex assay
# Bcl-xL/BAK [26] = molecular target: T4, Bcl-xL/BAK; assay: Binding affinity to human Bcl-xL/Bak (unkown origin) incubated for 1 hr by fluorescence polarization assay; type: protein assay
# [27] = Binding affinity to mouse Mcl-1/Bak (unkown origin) incubated for 1 hr by fluorescence polarization assay
# [28] = molecular target: Bcl-xL/Bcl-2-like protein 11 (Homo sapiens, UniProt Q07817); assay: Binding affinity to GST-tagged Bcl-xL/5-FAM-tagged Bim (unknown origin) assessed as inhibition constant by fluorescence polarization assay; type: protein assay
# [29] = molecular target: T2, Induced myeloid leukemia cell differentiation protein Mcl-1/BH3-interacting domain death agonist; assay: Binding affinity to human N-terminal 8xHis tagged Mcl-1/5-FAM-tagged Bid (unknown origin) assessed as inhibition constant by fluorescence polarization assay; type: protein assay
# BCL2/BID [30] = molecular target: T7, BCL2/BID; assay: Binding affinity to human Bcl-2 (29 to 44 residues)/5-FAM-tagged Bid (unknown origin) assessed as inhibition constant by fluorescence polarization assay; type: protein assay
# Bcl-xL/BAK [31] = molecular target: T4, Bcl-xL/BAK; assay: Binding affinity to Bcl-xL/Bak (unknown origin) assessed as inhibition constant by fluorescence polarization assay; type: protein assay
# MCL1-BAK1 complex [32] = molecular target: T8, MCL1-BAK1 complex; assay: Binding affinity to Mcl-1/Bak (unknown origin) assessed as inhibition constant by fluorescence polarization assay; type: protein-complex assay
# Bcl-xL/BAK [33] = molecular target: T4, Bcl-xL/BAK; assay: Binding affinity to Bcl-xL/Bak (unknown origin) assessed as dissociation constant by ITC method; type: protein assay
# [34] = molecular target: Apoptosis regulator Bcl-2/Bcl-2 homologous antagonist/killer (Homo sapiens, UniProt P10415+Q16611); assay: Inhibition of Bcl-2/Bak (unknown origin); type: protein assay
# Bcl-xL/BAK [35] = molecular target: T4, Bcl-xL/BAK; assay: Inhibition of Bcl-xL/Bak (unknown origin); type: protein assay
# BCL2A1/BAK1 = molecular target: T9, BCL2A1/BAK1 (Homo sapiens, UniProt Q16548+Q16611); assay: Inhibition of Bfl-1/Bak (unknown origin); type: protein assay
# T9 sequence (Q16611 whole entry): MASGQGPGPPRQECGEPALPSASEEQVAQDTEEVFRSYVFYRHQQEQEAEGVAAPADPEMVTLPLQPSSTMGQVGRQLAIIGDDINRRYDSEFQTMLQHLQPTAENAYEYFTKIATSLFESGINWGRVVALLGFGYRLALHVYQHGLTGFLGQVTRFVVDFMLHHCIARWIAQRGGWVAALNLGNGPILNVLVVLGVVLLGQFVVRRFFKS
# T9 sequence (Q16548 whole entry): T1 sequence (Q16548 whole entry)
# MCL1-BAK1 complex [36] = molecular target: T8, MCL1-BAK1 complex; assay: Inhibition of Mcl-1/Bak (unknown origin); type: protein-complex assay
# [37] = molecular target: T2, Induced myeloid leukemia cell differentiation protein Mcl-1/BH3-interacting domain death agonist; assay: Inhibition of Mcl-1/FITC-labelled Bid (unknown origin) protein protein interaction incubated for 20 to 60 mins by fluorescence polarisation binding assay
# T4 sequence (Q07817 whole entry, one chain of several, the tested form may be a part): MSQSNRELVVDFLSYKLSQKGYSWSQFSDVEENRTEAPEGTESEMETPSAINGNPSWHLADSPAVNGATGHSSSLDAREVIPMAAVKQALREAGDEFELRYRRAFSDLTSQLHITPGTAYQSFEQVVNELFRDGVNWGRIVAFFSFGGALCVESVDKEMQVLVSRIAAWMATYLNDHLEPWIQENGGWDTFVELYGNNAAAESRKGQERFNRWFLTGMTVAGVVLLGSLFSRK
# T5 sequence (Q07817 whole entry, one chain of several, the tested form may be a part): as above
# T7 sequence (P10415 whole entry, one chain of several): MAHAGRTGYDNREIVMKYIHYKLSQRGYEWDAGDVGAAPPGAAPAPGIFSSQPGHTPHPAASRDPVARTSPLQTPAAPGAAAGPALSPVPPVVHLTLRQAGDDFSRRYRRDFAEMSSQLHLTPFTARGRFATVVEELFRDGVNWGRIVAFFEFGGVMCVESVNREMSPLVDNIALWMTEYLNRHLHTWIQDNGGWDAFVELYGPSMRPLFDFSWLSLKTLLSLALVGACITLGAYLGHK
# T2 sequence (Q07820 whole entry, one chain of several, the tested form may be a part): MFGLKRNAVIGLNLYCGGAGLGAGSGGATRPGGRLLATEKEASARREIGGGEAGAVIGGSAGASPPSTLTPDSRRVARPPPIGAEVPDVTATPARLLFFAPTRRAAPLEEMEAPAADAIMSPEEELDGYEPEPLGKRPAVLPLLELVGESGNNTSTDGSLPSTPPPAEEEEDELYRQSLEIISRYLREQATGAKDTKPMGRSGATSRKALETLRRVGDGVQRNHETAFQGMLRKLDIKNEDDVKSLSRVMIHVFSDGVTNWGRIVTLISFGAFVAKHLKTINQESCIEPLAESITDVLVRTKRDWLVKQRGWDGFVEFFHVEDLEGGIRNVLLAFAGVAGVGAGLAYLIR
# T8 sequence (Q07820 whole entry, one chain of several): as the sequence (Q07820 whole entry, one chain of several, the tested form may be a part) above
# T3 sequence (Q07820 whole entry): as the sequence (Q07820 whole entry, one chain of several, the tested form may be a part) above
# Sequence of Bcl-2-like protein 1 (Q07817 whole entry): as the sequence (Q07817 whole entry, one chain of several, the tested form may be a part) above
# Sequence of Bcl-xL/Bcl-2-like protein 11 (Q07817 whole entry, the tested form may be a part): as the sequence (Q07817 whole entry, one chain of several, the tested form may be a part) above
# Sequence of Bcl-xL/Bcl-2-like protein 11 (O43521 whole entry, further chain, the tested form may be a part): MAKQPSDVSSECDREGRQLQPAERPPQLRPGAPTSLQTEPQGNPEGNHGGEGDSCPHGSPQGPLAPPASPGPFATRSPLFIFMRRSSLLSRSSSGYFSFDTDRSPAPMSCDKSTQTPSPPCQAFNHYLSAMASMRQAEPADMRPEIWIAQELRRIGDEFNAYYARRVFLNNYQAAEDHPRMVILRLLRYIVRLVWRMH
# Sequence of BCL2L10/BID (Q9HD36 whole entry, one chain of several, the tested form may be a part): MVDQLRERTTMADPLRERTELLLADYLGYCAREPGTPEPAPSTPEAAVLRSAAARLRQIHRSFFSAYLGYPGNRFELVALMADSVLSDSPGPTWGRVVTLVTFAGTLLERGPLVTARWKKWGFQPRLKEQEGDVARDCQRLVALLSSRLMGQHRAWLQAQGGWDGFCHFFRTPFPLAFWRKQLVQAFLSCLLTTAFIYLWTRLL
# Sequence of Apoptosis regulator Bcl-2 (P10415 whole entry): as the sequence (P10415 whole entry, one chain of several) above
# Sequence of Apoptosis regulator Bcl-2/Bcl-2 homologous antagonist/killer (P10415 whole entry, one chain of several): as above
# Sequence of Induced myeloid leukemia cell differentiation protein Mcl-1/Bcl-2-like protein 11 (Q07820 whole entry): as the sequence (Q07820 whole entry, one chain of several, the tested form may be a part) above
# Sequence of Induced myeloid leukemia cell differentiation protein Mcl-1/Bcl-2-like protein 11 (O43521 whole entry, further chain): as the sequence (O43521 whole entry, further chain, the tested form may be a part) above
# Sequence of BCL2/BAD (Q92934 whole entry): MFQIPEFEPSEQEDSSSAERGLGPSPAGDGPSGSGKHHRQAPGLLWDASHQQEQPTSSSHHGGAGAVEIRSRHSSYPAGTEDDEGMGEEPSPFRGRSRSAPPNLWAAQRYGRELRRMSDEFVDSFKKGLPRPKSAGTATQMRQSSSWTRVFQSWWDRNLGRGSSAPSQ
# Sequence of BCL2/BAD (P10415 whole entry): as the sequence (P10415 whole entry, one chain of several) above
structure (smiles),measurement,setting,value
O=C(O)C(O)c1ccccc1 (stereo not drawn) [MANDELIC ACID],IC50,OPM-2,19 nM
O=C(CSc1nnc(-c2ccco2)c(-c2ccco2)n1)Nc1ccccc1,Ki,BCL2A1/BID [1],4900 nM
same,Ki,[2],3200 nM
O=C(O)C1C2CC(Sc3ccccc3[N+](=O)[O-])C(Cl)C2c2cc(Cl)cc3c2N1CC1CC=CC31 (stereo not drawn),Ki,[3],15000 nM
same,Ki,[4],530 nM
same,Ki,Bcl-2-like protein 1,≥ 50000 nM
CC(C)Cc1cc(-c2ccc(-c3ccc(OCC(=O)O)cc3CC(C)C)cc2Cc2ccccc2)ccc1OCCC(=O)O,IC50,[5],4900 nM
same,IC50,Bcl-xL/BAK [6],1500 nM
CC1=C(C2=C(C)C(=O)c3c(cc(O)c(O)c3C(C)C)C2=O)C(=O)c2cc(O)c(O)c(C(C)C)c2C1=O,IC50,[7],25 nM
same,IC50,[8],660 nM
same,Ki,[9],25000 nM
O=C(O[C@@H]1Cc2c(O)cc(O)cc2O[C@@H]1c1cc(O)c(O)c(O)c1)c1cc(O)c(O)c(O)c1 [EPIGALOCATECHIN GALLATE],Ki,BCL2/BAD,490 nM
same,Ki,[10],335 nM
same,IC50,BCL2L2/BID [11],2330 nM
same,IC50,BCL2L10/BID,360 nM
same,IC50,[12],920 nM
same,IC50,[13],590 nM
same,IC50,BCL2/BID [14],450 nM
same,IC50,BCL2A1/BID [15],1790 nM
O=C(O)CSc1cc(NS(=O)(=O)c2cccc(Br)c2)c2ccccc2c1O,Ki,[16],33000 nM
same,Ki,BCL2L2/BID [17],8190 nM
same,Ki,BCL2A1/BID [18],5330 nM
same,Ki,BCL2/BID [19],23800 nM
same,Ki,[20],490 nM
same,Ki,[21],180 nM
O=C(O)c1cc2ccccc2n1S(=O)(=O)c1ccc(OCc2cccc(Cl)c2)cc1,IC50,[22],9200 nM
same,IC50,MCF7,19200 nM
CC(C)Oc1cc(C(=O)Nc2ccc(C(=O)Nc3ccc(C(=O)O)cc3OC(C)C)nc2OC(C)C)ccc1N,IC50,[23],394 nM
same,Ki,[24],179 nM
same,IC50,MCL1-BAK1 complex [25],10200 nM
CC1=C[C@@H](/C=C(\C)c2ccc(C(=O)O)cc2)[C@]2(C(=O)O)C=C[C@@H](CCOC(=O)c3ccc(Oc4ccccc4)cc3)C[C@@H]2C1,Ki,Bcl-xL/BAK [26],700 nM
same,Ki,[27],500 nM
O=C(Nc1ccccc1)C1=CN=c2s/c(=C\c3cn(Cc4ccccc4F)c4ccccc34)c(=O)n2C1c1ccc(F)cc1 (stereo not drawn),Ki,[28],1640 nM
same,Ki,[29],1050 nM
same,Ki,BCL2/BID [30],2670 nM
COc1ccc(-c2ccc(/C=C3\SC(=S)N([C@@H](Cc4ccccc4)C(=O)O)C3=O)cn2)cc1OC,Ki,Bcl-xL/BAK [31],> 100000 nM
same,Ki,MCL1-BAK1 complex [32],8000 nM
same,Kd,Bcl-xL/BAK [33],> 750000 nM
Cc1cc2c(O)c(-c3ccc4c(C(=O)NCC(C)c5ccccc5)c(O)c(O)cc4c3O)c(C)cc2c(C(=O)NCC(C)c2ccccc2)c1C (stereo not drawn),IC50,[34],320 nM
same,IC50,Bcl-xL/BAK [35],310 nM
same,IC50,BCL2A1/BAK1,200 nM
same,IC50,MCL1-BAK1 complex [36],620 nM
Cc1ccc(S(=O)(=O)/N=C2\C=C(Sc3nc[nH]n3)C(=O)c3ccccc32)cc1,IC50,[37],450 nM
